By IC50 is commonly meant the concentration that gives 50% inhibition. Low readings indicate higher potency, high ones lower potency.

In US20040220411A1, “Oxalic acid derivatives” (priority 2001, published 2004) one finds IC50 data, which are given here for seven compounds.

Sequence of factor Xa (P00742 235-488 limits assumed): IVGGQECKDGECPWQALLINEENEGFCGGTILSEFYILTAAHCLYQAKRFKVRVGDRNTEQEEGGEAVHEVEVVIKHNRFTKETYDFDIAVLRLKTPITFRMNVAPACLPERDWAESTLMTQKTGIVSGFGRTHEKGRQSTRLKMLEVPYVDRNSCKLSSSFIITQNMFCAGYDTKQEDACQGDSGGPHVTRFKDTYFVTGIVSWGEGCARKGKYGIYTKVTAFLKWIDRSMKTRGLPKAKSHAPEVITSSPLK
Sequence of factor Xa (P00742 41-179 partner limits assumed): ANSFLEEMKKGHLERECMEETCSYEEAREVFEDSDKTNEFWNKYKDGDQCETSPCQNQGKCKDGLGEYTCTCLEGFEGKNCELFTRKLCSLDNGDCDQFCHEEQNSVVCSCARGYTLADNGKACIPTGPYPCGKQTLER

In this assay the target is factor Xa (Homo sapiens, UniProt P00742). As to the kind of experiment: Inhibition of factor Xa. The settings on record: Affinity to receptors. The format is biochemical. The text has this:
The inhibition of factor Xa by the compounds according to the invention and the measurement of the anticoagulant and antithrombotic activity can be determined by conventional in-vitro or in-vivo methods. A suitable method is described, for example, by J. Hauptmann et al. in Thrombosis and Haemostasis 1990, 63, 220-223.
The inhibition of factor Xa can be measured, for example by the method of T. Hara et al. in Thromb. Haemostas. 1994, 71, 314-319.
For `CC(C)CN(Cc1cccc(C(=N)N)c1)C(=O)C(=O)Nc1ccc(-c2ccccc2S(N)(=O)=O)cc1` [Example 1, N-(3-amidinobenzyl)-N-isobutyl-N′-(2′-sulfamoylbiphenyl-4-yl)oxalamide], the IC50 was 10 nM.

On to `CC(C)CN(Cc1cccc(C(=N)N)c1)C(=O)C(=O)Nc1ccc(-c2ccccc2S(=O)(=O)NC(C)(C)C)cc1` [Example 1g, N-(2′-tert-butylsulfamoylbiphenyl-4-yl)-N′-(3-amidinobenzyl)-N′-isobutyloxalamide], for which the IC50 turned out to be 300 nM.

`CC(C)CN(Cc1cccc(C(=N)N)c1)C(=O)C(=O)Nc1ccc(-c2ccccc2S(C)(=O)=O)cc1` [Example 3, N-(3-amidinobenzyl)-N-isobutyl-N′-(2′-methanesulfonylbiphenyl-4-yl)oxalamide] registered an IC50 of 9.6 nM. Next, `COC(=O)NC(=N)c1cccc(CN(CC(C)C)C(=O)C(=O)Nc2ccc(-c3ccccc3S(C)(=O)=O)cc2)c1` [Example 4, Methyl [imino-(3-{[isobutyl-(2′-methanesulfonylbiphenyl-4-ylaminooxalyl)amino]methyl}phenyl)methyl]carbamate]: 3500 nM; `CC(C)CN(Cc1cccc(C(=N)N)c1)C(=O)C(=O)Nc1ccc(-c2ccc(C(=N)N)cc2)cc1` [Example 5, N-(3-amidinobenzyl)-N′-(4′-amidinobiphenyl-4-yl)-N-isobutyloxalamide]: 1000 nM; `CC(C)CN(Cc1cccc(C(=N)N)c1)C(=O)C(=O)Nc1ccc(-c2ccc(CN)cc2)cc1` [Example 6, N-(4′-Aminomethylbiphenyl-4-yl)-N′-(3-amidinobenzyl)-N′-isobutyloxalamide]: 1500 nM. On to `CC(C)CN(Cc1cccc(C(=O)O)c1)C(=O)C(=O)Nc1ccc(-c2ccccc2S(N)(=O)=O)cc1` [Example 7, 3-{[Isobutyl-(2′-sulfamoylbiphenyl-4-ylaminooxalyl)amino]methyl}benzoic acid], for which the IC50 was found to be 6000 nM.
